Values quoted from earlier work, collected in patent US12629369B2, “Pharmaceutical compositions of nilotinib” (AZURITY PHARMACEUTICALS, INC., priority 2019, dated 2026).
Structures can show the parent of a compound that is named as a salt.

Experiments:
[1] = taken with or after meals, particularly high fat meals (Castagnetti et al 2008)

Row | water solubility | increase of extent of absorption (area under the plasma profile curve) [1] [%] | increase of rate of absorption (Cmax) [1] [%] | solubility in aqueous solutions (25° C., pH 4.5 and higher) | SMILES
1 | poorly water soluble | – | – | – | Cc1cn(-c2cc(NC(=O)c3ccc(C)c(Nc4nccc(-c5cccnc5)n4)c3)cc(C(F)(F)F)c2)cn1 [Nilotinib hydrochloride]
2 | – | 82 | 112 | practically insoluble | Cc1cn(-c2cc(NC(=O)c3ccc(C)c(Nc4nccc(-c5cccnc5)n4)c3)cc(C(F)(F)F)c2)cn1 [Nilotinib, 4-methyl-N-[3-(4-methyl-1H-imidazol-1-yl)-5-(trifluoromethyl)phenyl]-3-[[4-(3-pyridinyl)-2-pyrimidinyl]amino]-benzamide]
